The text below walks through data of patent US8604033B2, “Preparation of 4-amino-thiazoles and 3-amino-1,2,4-thiadiazoles and their use as allosteric modulators of metabotropic glutamate receptors” (Addex Pharma S.A., priority 2010, dated 2013).

A word on the EC50: it is the concentration that produces a half-maximal response. The term melting point denotes the temperature of the solid-liquid transition.

Series [1] addresses T1, recombinant human mGluR4a receptors (Homo sapiens, UniProt Q14833).
T1 construct: expressed in transfected cells
The series is described as follows: mGluR4 assay on HEK-expressing human mGluR4 (fluorescent cell based Ca2+ mobilization assay, FLIPR). To be noted: HEK-293 cells expressing hmGluR4; enhancement of EC25 glutamate response; mean of at least three independent experiments in duplicate; read-out: Ca^2+ Flux (mean EC50). The source says: mGluR4 Assay on HEK-Expressing Human mGluR4 The compounds of the present invention are positive allosteric modulators of mGluR4 receptor. Their activity was examined on recombinant human mGluR4a receptors by detecting changes in intracellular Ca^2+ concentration, using the fluorescent Ca^2+-sensitive dye Fluo4-(AM) and a Fluorometric Imaging Plate Reader (FLIPR, Molecular Devices, Sunnyvale, Calif.). The cDNA encoding the human metabotropic glutamate receptor (hmGluR4), (accession number NM_000841.1, NCBI Nucleotide database browser), was subcloned into an expression vector containing also the hygromycin resistance gene. In parallel, the cDNA encoding a G protein allowing redirection of the activation signal to intracellular calcium flux was subcloned into a different expression vector containing also the puromycin resistance gene. Transfection of both these vectors into HEK293 cells with PolyFect reagent (Qiagen) according to supplier's protocol, and hygromycin and puromycin treatment allowed selection of antibiotic resistant cells which had integrated stably one or more copies of the plasmids. Positive cellular clones expressing hmGluR4 were identified in a functional assay measuring changes in calcium fluxes in response to glutamate or selective known mGluR4 orthosteric agonists and antagonists. HEK-293 cells expressing hmGluR4 were maintained in media containing DMEM, dialyzed Fetal Calf Serum (10%), Glutamax™ (2 mM), Penicillin (100 units/mL), Streptomycin (100 μg/mL), Geneticin (100 μg/mL) and Hygromycin-B (40 μg/mL) and puromycin (1 μg/mL) at 37° C./5% CO2. Human mGluR4HEK-293 cells were plated out 24 hours prior to FLIPR^384 assay in black-walled, clear-bottomed, poly-L-ornithine-coated 384-well plates at a density of 25,000 cells/well in a glutamine/glutamate free DMEM medium containing foetal bovine serum (10%), penicillin (100 units/mL) and streptomycin (100 μg/mL) at 37° C./5% CO2. On the day of the assay, the medium was aspirated and the cells were loaded with a 3 μM solution of Fluo4-AM (LuBioScience, Lucerne, Switzerland) in 0.03% pluronic acid. After 1 hour at 37° C./5% CO2, the non incorporated dye was removed by washing cell plate with the assay buffer and the cells were left in the dark at room temperature for […] before testing. All assays were performed in a pH 7.4 buffered-solution containing 20 mM HEPES, 143 mM NaCl, 6 mM KCl, 1 mM MgSO4, 1 mM CaCl2, 0.125 mM sulfapyrazone and 0.1% glucose. After 10 s of basal fluorescence recording, various concentrations of the compounds of the invention were added to the cells. Changes in fluorescence levels were first monitored for 180 s in order to detect any agonist activity of the compounds. Then the cells were stimulated by an EC25 glutamate concentration for an additional 110 s in order to measure enhancing activities of the compounds of the invention. EC25 glutamate concentration is the concentration giving 25% of the maximal glutamate response. The concentration-response curves of representative compounds of the present invention were generated using the Prism GraphPad software (Graph Pad Inc, San Diego, USA). The curves were fitted to a four-parameter logistic equation: (Y=Bottom+(Top−Bottom)/(1+10^((Log EC50−X)*Hill Slope) allowing the determination of EC50 values. The Table 3 below represents the mean EC50 obtained from at least three independent experiments of selected molecules performed in duplicate.

“And” between values parts separate entries of the source, which are not always exact repeats. Identical values can stand only once.

T1 sequence (Q14833 33-912): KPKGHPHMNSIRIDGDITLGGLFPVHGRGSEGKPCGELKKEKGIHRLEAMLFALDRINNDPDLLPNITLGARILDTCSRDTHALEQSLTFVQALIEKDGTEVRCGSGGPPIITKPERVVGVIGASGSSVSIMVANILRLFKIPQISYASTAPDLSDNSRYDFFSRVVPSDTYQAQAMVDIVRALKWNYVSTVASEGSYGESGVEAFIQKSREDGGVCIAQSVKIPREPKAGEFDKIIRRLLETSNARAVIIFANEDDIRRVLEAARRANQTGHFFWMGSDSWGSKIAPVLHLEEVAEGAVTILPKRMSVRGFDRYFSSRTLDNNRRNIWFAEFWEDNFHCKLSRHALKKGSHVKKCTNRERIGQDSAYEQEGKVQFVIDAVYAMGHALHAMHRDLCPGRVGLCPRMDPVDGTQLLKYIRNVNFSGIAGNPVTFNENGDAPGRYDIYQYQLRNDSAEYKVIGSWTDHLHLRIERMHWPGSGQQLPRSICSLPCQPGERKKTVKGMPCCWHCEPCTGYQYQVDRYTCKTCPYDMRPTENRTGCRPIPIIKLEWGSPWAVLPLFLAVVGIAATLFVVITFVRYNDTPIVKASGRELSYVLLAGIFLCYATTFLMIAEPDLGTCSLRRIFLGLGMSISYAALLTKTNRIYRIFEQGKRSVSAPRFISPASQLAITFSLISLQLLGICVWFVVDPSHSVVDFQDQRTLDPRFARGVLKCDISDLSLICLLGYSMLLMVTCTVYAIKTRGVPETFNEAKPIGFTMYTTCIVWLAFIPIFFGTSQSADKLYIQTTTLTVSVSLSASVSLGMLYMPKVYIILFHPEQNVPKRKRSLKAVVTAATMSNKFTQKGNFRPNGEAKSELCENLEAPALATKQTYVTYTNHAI

For `Cc1cccc(Nc2csc(-c3cn[nH]c3)n2)n1` [Compound 1-6, N-(6-Methylpyridin-2-yl)-2-(1H-pyrazol-4-yl)thiazol-4-amine], in series [1], the EC50 is 100 to 1000 nM.
With `Fc1cccc(Nc2csc(-c3cn[nH]c3)n2)n1` [Compound 1-3, N-(6-Fluoropyridin-2-yl)-2-(1H-pyrazol-4-yl)thiazol-4-amine], the melting point was 238 to 240 °C. Also, the EC50 in series [1] is < 100 nM.
Regarding `c1cnc(Nc2csc(-c3c[nH]nc3C3CC3)n2)nc1` [Compound 1-10, 2-(3-Cyclopropyl-1H-pyrazol-4-yl)-N-(pyrimidin-2-yl)thiazol-4-amine], the melting point was 241 °C. Also, the EC50 in series [1] was < 100 nM.
The matching figures for `FC(F)(F)c1n[nH]cc1-c1nc(Nc2ccccn2)cs1` [Compound 1-8, N-(Pyridin-2-yl)-2-(3-(trifluoromethyl)-1H-pyrazol-4-yl)thiazol-4-amine]: 204 to 206 °C and 100 to 1000 nM.
For `c1ccc(Nc2nsc(-c3cn[nH]c3)n2)nc1` [Compound 1-2, 5-(1H-Pyrazol-4-yl)-N-(pyridin-2-yl)-1,2,4-thiadiazol-3-amine], in series [1], the EC50 lay in the range of 100 to 1000 nM.
Regarding `c1ccc(Nc2csc(-c3cn[nH]c3)n2)nc1` [Compound 1-1, 2-(1H-Pyrazol-4-yl)-N-(pyridin-2-yl)thiazol-4-amine], the melting point is 207 to 209 °C and 209 to 210 °C. For the same compound, in series [1], the EC50 is < 100 nM.
For the compound `COc1ccnc(Nc2csc(-c3cn[nH]c3)n2)n1` [Compound 1-5, N-(4-Methoxypyrimidin-2-yl)-2-(1H-pyrazol-4-yl)thiazol-4-amine], the melting point was in the range of 250 to 252 °C. The EC50 in series [1] is 100 to 1000 nM.
In the case of `FC(F)(F)c1n[nH]cc1-c1nc(Nc2ncccn2)cs1` [Compound 1-11, N-(Pyrimidin-2-yl)-2-(3-(trifluoromethyl)-1H-pyrazol-4-yl)thiazol-4-amine], the 50% effective concentration (EC50) in series [1] is < 100 nM.
Take `Cc1ccnc(Nc2csc(-c3cn[nH]c3)n2)n1` [Compound 1-4, N-(4-Methylpyrimidin-2-yl)-2-(1H-pyrazol-4-yl)thiazol-4-amine]: the melting point lay within 230 to 232 °C. Besides, the EC50 in series [1] lay in the range of 100 to 1000 nM.
`c1ccc(Nc2csc(-c3c[nH]nc3C3CC3)n2)nc1` [Compound 1-9, 2-(3-Cyclopropyl-1H-pyrazol-4-yl)-N-(pyridin-2-yl)thiazol-4-amine]: the melting point is 141.3 °C. In series [1], the EC50 was < 100 nM.
The matching figures for `c1cnc(Nc2csc(-c3cn[nH]c3)n2)nc1` [Compound 1-7, 2-(1H-Pyrazol-4-yl)-N-(pyrimidin-2-yl)thiazol-4-amine]: 217 °C (dec.) and < 100 nM.
